Experimental data taken from PubChem BioAssay (NCI).
Where “and” joins values, the source holds several entries; their conditions need not be identical. Equal entries are not always repeated.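 Tested at 5 concentrations; 48 h exposure; 96-well plates; endpoints linearly interpolated, else capped at highest concentration. The concentration for 50% growth inhibition is given as GI50. TGI marks complete inhibition of growth.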

Columns and labels:
Assay in all cases: NCI tumour cell line growth inhibition, 48 h
[1] = system: COLO 205 colon
[2] = system: HCT-116 colon
[3] = system: MDA-MB-435
[4] = system: OVCAR-8 ovarian
[5] = system: RXF 393 renal
[6] = system: SF-268 CNS
[7] = system: SF-539 CNS
[8] = system: SK-OV-3 ovarian

Row | Compound | GI50 [1] | TGI [1] | GI50 [2] | TGI [2] | GI50 [3] | TGI [3] | GI50 [4] | TGI [4] | GI50 [5] | TGI [5] | GI50 [6] | TGI [6] | GI50 [7] | TGI [7] | GI50 [8] | TGI [8]
1 | O=C(Cc1ccc(/C=C/C(=O)c2ncc[nH]2)cc1)Nc1ccc(F)cc1 | 4.54 µM | 10.8 µM | 1.89 µM | 6.92 µM | 4.07 µM | 20.1 µM | 5.08 µM | > 33.3 µM | 3.44 µM | 8.92 µM | 5.1 µM | 26.3 µM | 0.845 µM | 2.66 µM | 9.38 µM | > 33.3 µM
2 | CC(N)C(Cc1ccc(Cl)cc1)c1ccc(Cl)cc1 (stereo not drawn) | 1.89 µM | 3.97 µM | 4.05 µM | 16.4 µM | 8.2 µM | 20.7 µM | 20.4 µM | 52.8 µM | 11.7 µM | 25.5 µM | 11.4 µM | 26.5 µM | 13.3 µM | 26.8 µM | 16.8 µM | 30.8 µM
3 | Cc1cccc(N(C)C(=O)[C@@H]2[C@H](O)CCN2c2nc(C)cc(C(F)(F)F)c2C#N)c1 | 17.3 µM | 34 µM | 15.4 µM | 29 µM | 32 µM | > 100 µM | 28.1 µM | > 100 µM | 14.6 µM | 40.1 µM | 26.5 µM | > 100 µM | 15.9 µM | 32.2 µM | 24.1 µM | 81.1 µM
4 | CCN(CC)c1ccc(/C=N/NC(=O)CSc2nc3ccccc3c(=O)n2CCc2ccc(S(N)(=O)=O)cc2)c(O)c1 | 3.22 µM | > 100 µM | 0.927 µM | 10.7 µM | 3.89 µM | > 100 µM | 1.03 µM | > 100 µM | 2.17 µM | 32.2 µM | 2.05 µM | > 100 µM | 2.42 µM | 66.5 µM | 2.72 µM | > 100 µM
5 | c1ccc([P+](CCSCCSCC[P+](c2ccccc2)(c2ccccc2)c2ccccc2)(c2ccccc2)c2ccccc2)cc1 | – | > 100 µM | – | > 100 µM | – | > 100 µM | – | > 100 µM | – | > 100 µM | – | > 100 µM | – | > 100 µM | – | > 100 µM
6 | COc1ccc2c(c1)/C(=C\c1c(-c3cc(OC)ccc3OC)nc3sc(C)cn13)C(=O)N2C | 18.1 µM | 44.2 µM | 22.3 µM | > 100 µM | 26.5 µM | 79.9 µM | 28.2 µM | > 100 µM | > 100 µM | > 100 µM | 28.6 µM | > 100 µM | 32.9 µM | > 100 µM | 28 µM | > 100 µM
7 | COc1ccc(/C=C/C(=O)c2cc(OC)c(OC)c(OC)c2)cc1OCC(=O)Nc1nc2ccc(OC(F)(F)F)cc2s1 | 6.37 µM | 39.8 µM | 1.43 µM | 3.15 µM | 0.3 µM | 1.08 µM | 1.54 µM | 3.89 µM | 1.58 µM | 3.74 µM | 1.2 µM | 8.5 µM | 0.293 µM | 1.18 µM | 2.16 µM | 5.07 µM
8 | COc1ccc(C(c2cc(OC)c(OC)c(OC)c2)n2ccnc2)cc1O (stereo not drawn) | 0.361 µM | 1.77 µM | 0.249 µM | > 100 µM | – | – | – | – | – | – | 0.731 µM | > 100 µM | 0.217 µM | 0.552 µM | 0.465 µM | > 100 µM
9 | N#Cc1cc(C#N)c(N)nc1N | – | > 100 µM | – | > 100 µM | – | > 100 µM | – | > 100 µM | – | > 100 µM | – | – | – | > 100 µM | – | > 100 µM
10 | Cc1nc([P+](c2ccccc2)(c2ccccc2)c2ccccc2)c(Sc2sc(-c3ccccc3)nc2[P+](c2ccccc2)(c2ccccc2)c2ccccc2)o1 | – | – | 0.896 µM | 2.94 µM | 1.19 µM | 3.46 µM | 0.867 µM | 11.6 µM | 1.78 µM | 5.26 µM | 2.02 µM | 7.71 µM | 2.3 µM | 7.34 µM | – | –
11 | O=C(Oc1cccc2cccnc12)c1cc2c(cc1Cl)SC(N(c1ccc(F)cc1)S(=O)(=O)c1ccc(Br)s1)=NS2(=O)=O | 18.5 µM | 50.8 µM | 19.3 µM | 55 µM | 26 µM | > 100 µM | – | – | – | – | 35.7 µM | > 100 µM | 23.4 µM | 75.2 µM | > 100 µM | > 100 µM
12 | COc1cc(OC)c2c(c1)OC(c1ccccc1)CC2=O (stereo not drawn) | – | > 10 µM | – | > 10 µM | – | > 10 µM | – | > 10 µM | – | > 10 µM | – | > 10 µM | – | > 10 µM | – | > 10 µM
13 | Nc1nccc(-c2c(-c3ccc(F)cc3)ncn2C2CCNCC2)n1 | 0.623 µM and 1.01 µM | > 7.09 µM and 11.1 µM | 3.52 µM and 1.47 µM | > 25 µM | 2.87 µM and 4.17 µM | > 25 µM | 5.88 µM and 1.43 µM | > 25 µM | 2.35 µM and 3.6 µM | > 25 µM and 10.5 µM | 5.92 µM and 2.76 µM | > 25 µM | 23.5 µM and 8.37 µM | > 25 µM | 3.34 µM and 5.45 µM | > 25 µM
14 | CCOC(=O)/C(=C/N1CCN(C(=O)c2ccco2)C1=S)C(=O)c1ccccc1 | 19.2 µM | > 50 µM | 8.93 µM | 23.7 µM | 14.4 µM | > 50 µM | 11.7 µM | 35.2 µM | – | – | 7.18 µM | 19.9 µM | – | – | 20 µM | > 50 µM
15 | CNNC1=NS(=O)(=O)c2cc(C#N)c(Cl)cc2S1 | – | > 10 µM | – | > 10 µM | – | > 10 µM | – | > 10 µM | – | > 10 µM | – | > 10 µM | – | > 10 µM | – | > 10 µM
16 | CCOC(=O)C1Cc2c(cc3c4c(cccc24)N(C(C)=O)C3)N(C)C1 (stereo not drawn) | – | > 100 µM | – | > 100 µM | – | 7.04 µM | – | > 100 µM | – | 44.7 µM | – | > 100 µM | – | 10.1 µM | – | > 100 µM
17 | COc1ccc(C2=N[C@@H](Cc3ccccc3)C(=O)Nc3ccsc32)cc1 | 2.49 µM | 5.03 µM | 5.38 µM | 17.7 µM | 1.52 µM | 4 µM | 6.31 µM | 57.6 µM | 2.75 µM | 9.6 µM | 10.4 µM | 43.8 µM | 2.75 µM | 9.84 µM | 4.56 µM | 17.3 µM
